#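 1) Cells in 96-well plates. 2) Compound, 48 h, 5 concentrations. 3) Linear interpolation between surrounding doses. 4) Unreached endpoint = highest concentration. At the GI50, growth is halved.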 Active and inactive are the calls of the source. No stated cut-off is given here; in the data, active = GI50 up to about 1.1 µM and inactive = higher.
# Legend:
# Experiment in all cases: inhibition of tumour cell growth, NCI panel, 48 h
# [1] = test system: HOP-62
# [2] = test system: DU-145
# [3] = test system: PC-3
# [4] = test system: SW-620
# [5] = test system: CAKI-1
# [6] = test system: LOX IMVI
# [7] = test system: IGROV-1
# [8] = test system: HCC 2998
# [9] = test system: 786-0
# [10] = test system: TK-10
# [11] = test system: MDA-MB-435
# [12] = test system: UACC-62
# [13] = test system: HL-60
# [14] = test system: NCI-H522
# [15] = test system: NCI-H23
# [16] = test system: UACC-257
# [17] = test system: T47D
# [18] = test system: RPMI-8226
# [19] = test system: MDA-N
# [20] = test system: SK-OV-3
Compound,GI50 [1],GI50 [2],GI50 [3],GI50 [4],GI50 [5],GI50 [6],GI50 [7],GI50 [8],GI50 [9],GI50 [10],GI50 [11],GI50 [12],GI50 [13],GI50 [14],GI50 [15],GI50 [16],GI50 [17],GI50 [18],GI50 [19],GI50 [20]
COc1ccccc1CC(=O)C(O)(C(F)(F)F)C(F)(F)F,> 100 µM (inactive),> 100 µM (inactive),> 100 µM (inactive),> 100 µM (inactive),> 100 µM (inactive),> 100 µM (inactive),> 100 µM (inactive),> 100 µM (inactive),> 100 µM (inactive),> 100 µM (inactive),> 100 µM (inactive),> 100 µM (inactive),> 100 µM (inactive),> 100 µM (inactive),> 100 µM (inactive),> 100 µM (inactive),> 100 µM (inactive),> 100 µM (inactive),> 100 µM (inactive),> 100 µM (inactive)
CCCCCCCC(=O)OC[n+]1ccc(-c2c(COC(=O)NC(C)C)c(COC(=O)NC(C)C)c3n2CCC3)cc1,56.6 µM (inactive),23.4 µM (inactive),> 65.2 µM (inactive),23.2 µM (inactive),18.6 µM (inactive),20.1 µM (inactive),31 µM (inactive),> 100 µM (inactive),27 µM (inactive),> 67.5 µM (inactive),69 µM (inactive),13.8 µM (inactive),14.8 µM (inactive),26.4 µM (inactive),35.2 µM (inactive),70.6 µM (inactive),> 64.9 µM (inactive),22.1 µM (inactive),> 94.8 µM (inactive),63.1 µM (inactive)
COc1ccc(NC(=O)C2=C(SC)C(C#N)C(=O)N=C2N)cc1 (stereo not given),> 100 µM (inactive),> 100 µM (inactive),> 100 µM (inactive),67.1 µM (inactive),46.3 µM (inactive),> 100 µM (inactive),20.3 µM (inactive),> 100 µM (inactive),65.8 µM (inactive),> 100 µM (inactive),> 100 µM (inactive),> 100 µM (inactive),31.2 µM (inactive),15.1 µM (inactive),> 100 µM (inactive),> 100 µM (inactive),49.4 µM (inactive),> 100 µM (inactive),> 100 µM (inactive),> 100 µM (inactive)
C=C(C)[C@H]1Cc2c(ccc3c2O[C@@H]2COc4cc(OC)c(OC)cc4[C@@H]2C3=O)O1 [ROTENONE],0.168 µM (active),0.133 µM (active),0.155 µM (active),0.131 µM (active),0.185 µM (active),0.0624 µM (active),0.126 µM (active),0.316 µM (active),0.236 µM (active),0.229 µM (active),0.0206 µM (active),0.0597 µM (active),0.0611 µM (active),0.0247 µM (active),0.0258 µM (active),0.0516 µM (active),0.0989 µM (active),0.0575 µM (active),0.0423 µM (active),0.206 µM (active)
NC(CSCc1ccc(I)cc1)C(=O)O (stereo not given),> 100 µM (inactive),> 100 µM (inactive),> 100 µM (inactive),> 100 µM (inactive),> 100 µM (inactive),> 100 µM (inactive),> 100 µM (inactive),> 100 µM (inactive),> 100 µM (inactive),> 100 µM (inactive),> 100 µM (inactive),> 100 µM (inactive),> 100 µM (inactive),> 100 µM (inactive),> 100 µM (inactive),> 100 µM (inactive),> 100 µM (inactive),> 100 µM (inactive),> 100 µM (inactive),> 100 µM (inactive)
CC(C)(C)OC(=O)NCCNC(=O)CN(CC(=O)O)C1CCCCC1N(CC(=O)O)CC(=O)O (stereo not given),> 100 µM (inactive),> 100 µM (inactive),> 100 µM (inactive),> 100 µM (inactive),> 100 µM (inactive),> 100 µM (inactive),> 100 µM (inactive),> 100 µM (inactive),> 100 µM (inactive),> 100 µM (inactive),> 100 µM (inactive),> 100 µM (inactive),> 100 µM (inactive),> 100 µM (inactive),> 100 µM (inactive),> 100 µM (inactive),> 100 µM (inactive),> 100 µM (inactive),> 100 µM (inactive),> 100 µM (inactive)
Cc1cccc2c(N)c3cccc(C(=O)NCCNCCN)c3nc12,0.533 µM (active),2.62 µM (inactive),10.8 µM (inactive),8.02 µM (inactive),3.8 µM (inactive),5.28 µM (inactive),5.01 µM (inactive),6.79 µM (inactive),0.0644 µM (active),22.3 µM (inactive),18.7 µM (inactive),7.4 µM (inactive),8.83 µM (inactive),0.0826 µM (active),0.598 µM (active),26.2 µM (inactive),7.36 µM (inactive),9.55 µM (inactive),16 µM (inactive),26.9 µM (inactive)
C[C@]12CC[C@@H]3c4cc(OCC(F)(F)F)c(O)cc4CC[C@H]3[C@@H]1CC[C@@H]2O,11.6 µM (inactive),6.3 µM (inactive),2.28 µM (inactive),1.05 µM (active),2.74 µM (inactive),2.94 µM (inactive),6.89 µM (inactive),5.93 µM (inactive),3.24 µM (inactive),12 µM (inactive),0.284 µM (active),2.32 µM (inactive),0.403 µM (active),0.558 µM (active),4.75 µM (inactive),7.1 µM (inactive),5.41 µM (inactive),1.17 µM (inactive),0.287 µM (active),1.69 µM (inactive)
COc1ccccc1NC(=O)C1=C(C)NC(C)=C(C(=O)Nc2ccccc2OC)C1c1ccco1,6.28 µM (inactive),21.4 µM (inactive),3.47 µM (inactive),4.49 µM (inactive),4.09 µM (inactive),8.07 µM (inactive),9.14 µM (inactive),8.79 µM (inactive),4.45 µM (inactive),19.5 µM (inactive),3.48 µM (inactive),3.12 µM (inactive),0.638 µM (active),2.66 µM (inactive),6.4 µM (inactive),9.55 µM (inactive),11.9 µM (inactive),4.52 µM (inactive),2.74 µM (inactive),7.01 µM (inactive)
COc1ccc(OC)c(N2C(=O)/C(=C\c3ccccc3)SC2c2cc(OC)c(OC)c(OC)c2)c1 (stereo not given),> 100 µM (inactive),> 100 µM (inactive),> 89.5 µM (inactive),46.6 µM (inactive),> 84.3 µM (inactive),> 100 µM (inactive),29.8 µM (inactive),> 100 µM (inactive),> 96.6 µM (inactive),> 100 µM (inactive),26.5 µM (inactive),4.06 µM (inactive),58.9 µM (inactive),30.9 µM (inactive),> 80.5 µM (inactive),> 100 µM (inactive),12.4 µM (inactive),71.4 µM (inactive),22 µM (inactive),> 100 µM (inactive)
Cc1c(/N=C\c2ccc(N(CCC#N)CCC#N)cc2)c(=O)n(-c2ccccc2)n1C,31.5 µM (inactive),> 100 µM (inactive),> 100 µM (inactive),> 100 µM (inactive),> 100 µM (inactive),> 100 µM (inactive),> 93.5 µM (inactive),> 100 µM (inactive),24.4 µM (inactive),24.1 µM (inactive),> 100 µM (inactive),> 100 µM (inactive),> 100 µM (inactive),> 100 µM (inactive),> 100 µM (inactive),> 100 µM (inactive),> 100 µM (inactive),> 100 µM (inactive),> 100 µM (inactive),> 100 µM (inactive)
Cc1nc(-n2[nH]c(C)c(CCO)c2=O)[nH]c(=O)c1CCO,> 100 µM (inactive),> 100 µM (inactive),> 100 µM (inactive),> 100 µM (inactive),> 100 µM (inactive),> 100 µM (inactive),> 100 µM (inactive),> 100 µM (inactive),> 100 µM (inactive),> 100 µM (inactive),> 100 µM (inactive),> 100 µM (inactive),> 100 µM (inactive),> 100 µM (inactive),> 100 µM (inactive),> 100 µM (inactive),> 100 µM (inactive),> 100 µM (inactive),> 100 µM (inactive),> 100 µM (inactive)
CC[S+]([O-])c1c2cc(OC)ccc2nc2ccc(OC)cc12 (stereo not given),21.5 µM (inactive),2.59 µM (inactive),10.7 µM (inactive),6.84 µM (inactive),5.06 µM (inactive),2.58 µM (inactive),4.94 µM (inactive),16.6 µM (inactive),2.56 µM (inactive),5.38 µM (inactive),8.85 µM (inactive),16.9 µM (inactive),4.99 µM (inactive),1.83 µM (inactive),6.05 µM (inactive),5.45 µM (inactive),2.62 µM (inactive),3.45 µM (inactive),4.71 µM (inactive),24.1 µM (inactive)
CCCCOC(=O)N[C@H]1CCc2cc(OC)c(OC)c(OC)c2-c2ccc(SC)c(=O)cc21,< 0.01 µM (active),< 0.01 µM (active),0.0127 µM (active),< 0.01 µM (active),< 0.01 µM (active),< 0.01 µM (active),0.0101 µM (active),< 0.01 µM (active),< 0.01 µM (active),0.198 µM (active),< 0.01 µM (active),< 0.01 µM (active),0.0123 µM (active),< 0.01 µM (active),< 0.01 µM (active),< 0.0286 µM (active),18.1 µM (inactive),< 0.01 µM (active),< 0.01 µM (active),0.0303 µM (active)

# — ChEMBL document CHEMBL1201862, “PubChem BioAssay data set” (2004)
